In brackets after ≈: the same amount, converted by molar mass. Read-outs that look alike come from different tables or passages of the source.
Assays:
NCX [1] = test system: NCX; design: method as in ref 1 (a number printed in a supplementary file, which may have a reference list of its own: not looked up in the article's list); settings: Rabbit, cited from earlier work
NCX [2] = test system: NCX; design: method as in ref 1 (a number printed in a supplementary file, which may have a reference list of its own: not looked up in the article's list); settings: Rat, cited from earlier work
hNCX1 = hNCX1 (Homo sapiens, UniProt P32418); assay: Confirmatory fluorescence assay for hNCX1 inhibition (forward mode, HEK293 cells, Charles River); type: cell-based
Method: A confirmatory hNCX1 inhibition assay was performed in Charles River Laboratories, Cleveland. Briefly, HEK293 cells stably expressing hNCX1 were plated in 384‐well black wall, clear‐bottom microtitre plates and the next day loaded with Fluo‐8 for 30 min at 37°C. A plate was inserted into a FLIPR^TETRA, and a baseline was recorded during a preincubation period where test compound or vehicle in a Na^+‐free HB‐PS containing thapsigargin (6 μM) and […] (30 μM) was added to each well for ~5 min. Next, the NCX1 stimulation period was recorded in which Na^+‐containing HB‐PS (with 2‐μM thapsigargin and 10‐μM FCCP) was added. The experiments were performed at room temperature. The kinetic data generated were reduced for each well to maximum relative fluorescence units (RFU) minus minimum RFU after subtracting bias based on the first sample. The mean of the max–min RFU values during the stimulation period for the 3–4 replicates at each concentration on a plate was then plotted versus concentration and fitted to a Hill equation.

human NCX 1.1 = molecular target: T1, human NCX 1.1 (Homo sapiens, UniProt P32418); assay: Fluorescence screening assay for hNCX 1.1 inhibition (reverse mode, Sf9 cells); type: cell-based; settings: Sf9 cells expressing human NCX1.1, reverse mode, fluorescence; n=3 assays
T1 construct: expressed in transfected cells
Method: Spodoptera frugiperda (Sf9; RRID:CVCL_0549) cells are widely used for the transient and stable expression of recombinant proteins. Here, Sf9 cells were stably transfected with human NCX 1.1 and maintained in spinner flasks with insect cell culture medium (TNM‐FH), supplemented with 10% FBS, antibiotic–antimycotic solution, and 50 μg·ml^−1 of blasticidin at 28°C in a non‐humidified, CO2‐free atmosphere. The Sf9 cell suspension was subcultured three times a week.
NCX reverse mode activity was stimulated via a 50% dilution of the extracellular Na^+ level using the internal pipettor of FLEXstation, a fluorescence imaging plate reader (Molecular Devices, USA), while simultaneously monitoring intracellular calcium levels. After dilution, the concentration of other ions remained the same, but Na^+ concentration was diluted to the half of original concentration of 172 to 86 mM. For Sf9 insect cells, normal extracellular Na^+ ion concentration is 172 mM. Typically, 50 μl of a solution containing 150,000–200,000 Sf9–NCX cells was loaded onto each well of a 96‐well plate. Cells were preincubated with the intracellular calcium dye Fluo‐4 and Fluo‐6, and the concentrations of the test compound (three replicates) were determined for about 1 h at room temperature before experimentation. The extracellular solution contained (in mM) 172 NaCl, 10 HEPES, 1 CaCl2, 1.2 MgCl2, 0.33 NaH2PO4, 5 glucose, and 5 probenecid. The pH was adjusted to 7.4 with NaOH. The extracellular Na^+ was diluted by the addition of a Na^+‐free extracellular solution (containing in mM: 147 N‐methyl‐D‐glucamine (NMDG), 10 HEPES, 1 CaCl2, 1.2 MgCl2, 0.33 NaH2PO4, and 5 glucose with the pH adjusted by HCl to 7.4)‐induced robust and reproducible elevation of intracellular calcium. The osmolarity of both solutions was adjusted to 340–355 mOsm in order to match the Sf9 cell media osmolarity. In each plate, the IC50 determination for each test compound was based on relative fluorescence changes in comparison with control and 5‐mM nickel acetate‐induced NCX inhibition.

Solubility = type: physicochemical; settings: pH 7.4 phosphate buffer
NCX [3] = test system: NCX; design: method as in ref 9 (a number printed in a supplementary file, which may have a reference list of its own: not looked up in the article's list); settings: SH-SY5Y neuron, cited from earlier work
L-Type Ca2+ Channel = settings: Table S2; cited from earlier work
MAO B = molecular target: T2, MAO B (Homo sapiens, UniProt P27338); assay: MAO B inhibition (Table S2); type: biochemical; settings: 10 μM
T2 sequence (P27338 1-520): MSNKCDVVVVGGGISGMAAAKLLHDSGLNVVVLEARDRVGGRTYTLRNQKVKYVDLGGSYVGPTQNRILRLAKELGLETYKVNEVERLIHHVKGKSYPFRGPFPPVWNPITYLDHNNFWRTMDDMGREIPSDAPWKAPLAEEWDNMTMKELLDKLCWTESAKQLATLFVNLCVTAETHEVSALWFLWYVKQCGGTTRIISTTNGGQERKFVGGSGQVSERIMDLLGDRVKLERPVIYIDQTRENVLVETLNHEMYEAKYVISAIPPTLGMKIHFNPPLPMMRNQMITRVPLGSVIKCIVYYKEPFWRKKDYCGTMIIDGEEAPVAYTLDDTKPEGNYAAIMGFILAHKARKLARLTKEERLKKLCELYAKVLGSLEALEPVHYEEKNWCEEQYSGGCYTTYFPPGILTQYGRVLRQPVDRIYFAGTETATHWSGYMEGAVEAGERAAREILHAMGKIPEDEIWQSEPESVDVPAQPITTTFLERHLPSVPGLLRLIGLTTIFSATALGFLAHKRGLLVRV

hERG = hERG (Homo sapiens, UniProt Q12809); assay: hERG IC50 of Table 1 / Table S2 (method not assigned); type: cell-based; settings: human; n=4 assays
NCX [4] = test system: NCX; design: method as in ref 4 (a number printed in a supplementary file, which may have a reference list of its own: not looked up in the article's list); settings: CCL39 fibroblast, cited from earlier work
MAO A = molecular target: T3, MAO A (Homo sapiens, UniProt P21397); assay: MAO A inhibition (Table S2); type: biochemical; settings: 10 μM
T3 sequence (P21397 1-527): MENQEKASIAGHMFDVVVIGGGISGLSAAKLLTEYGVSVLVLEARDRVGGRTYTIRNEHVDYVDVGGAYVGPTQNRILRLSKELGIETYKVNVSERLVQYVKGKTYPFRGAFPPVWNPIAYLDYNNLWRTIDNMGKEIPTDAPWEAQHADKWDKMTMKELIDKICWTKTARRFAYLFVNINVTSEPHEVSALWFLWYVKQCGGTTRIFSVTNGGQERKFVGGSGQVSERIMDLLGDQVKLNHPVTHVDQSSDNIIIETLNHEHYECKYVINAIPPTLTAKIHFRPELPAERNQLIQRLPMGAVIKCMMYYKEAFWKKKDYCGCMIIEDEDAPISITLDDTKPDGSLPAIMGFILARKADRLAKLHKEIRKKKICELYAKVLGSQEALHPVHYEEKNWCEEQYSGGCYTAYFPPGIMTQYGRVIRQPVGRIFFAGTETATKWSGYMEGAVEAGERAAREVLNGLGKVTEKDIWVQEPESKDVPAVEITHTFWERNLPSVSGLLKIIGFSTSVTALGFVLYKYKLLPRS

hERG, sequence (Q12809 whole entry): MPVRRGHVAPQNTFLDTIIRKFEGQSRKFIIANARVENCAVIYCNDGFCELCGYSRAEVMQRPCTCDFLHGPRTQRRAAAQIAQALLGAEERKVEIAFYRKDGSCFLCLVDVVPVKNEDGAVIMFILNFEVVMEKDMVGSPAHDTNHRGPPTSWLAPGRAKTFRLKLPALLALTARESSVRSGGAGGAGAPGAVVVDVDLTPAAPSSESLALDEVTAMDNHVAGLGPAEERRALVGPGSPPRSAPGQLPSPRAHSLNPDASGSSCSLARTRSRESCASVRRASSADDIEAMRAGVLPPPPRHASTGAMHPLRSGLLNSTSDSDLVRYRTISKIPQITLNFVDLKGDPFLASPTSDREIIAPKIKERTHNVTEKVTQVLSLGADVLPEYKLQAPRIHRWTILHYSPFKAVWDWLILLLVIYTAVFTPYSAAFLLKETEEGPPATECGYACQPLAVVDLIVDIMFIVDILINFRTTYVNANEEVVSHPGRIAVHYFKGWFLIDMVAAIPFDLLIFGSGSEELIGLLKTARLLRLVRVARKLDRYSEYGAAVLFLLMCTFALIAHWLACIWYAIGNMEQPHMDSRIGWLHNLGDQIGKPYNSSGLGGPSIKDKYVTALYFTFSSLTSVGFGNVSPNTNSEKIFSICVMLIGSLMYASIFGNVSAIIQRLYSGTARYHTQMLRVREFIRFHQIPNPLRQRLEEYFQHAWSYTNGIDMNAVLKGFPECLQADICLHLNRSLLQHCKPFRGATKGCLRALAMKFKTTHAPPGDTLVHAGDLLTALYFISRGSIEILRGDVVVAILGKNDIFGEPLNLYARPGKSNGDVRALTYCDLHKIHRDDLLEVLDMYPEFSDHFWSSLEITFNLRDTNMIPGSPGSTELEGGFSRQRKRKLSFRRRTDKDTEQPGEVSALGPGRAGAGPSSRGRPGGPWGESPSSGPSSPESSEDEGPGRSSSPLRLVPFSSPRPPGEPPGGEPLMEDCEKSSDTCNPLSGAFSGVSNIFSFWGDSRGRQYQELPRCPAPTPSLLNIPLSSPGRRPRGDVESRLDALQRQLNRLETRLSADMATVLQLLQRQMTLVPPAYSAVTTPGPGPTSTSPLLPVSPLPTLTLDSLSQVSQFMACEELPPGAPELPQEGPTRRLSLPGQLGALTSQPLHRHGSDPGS

| IC50 (hNCX1; HEK293, forward mode, Table S2, read-out: hNCX1-HEK IC50) [µM] | IC50 (human NCX 1.1) [µM] | inhibition at 10 µM (MAO B) [%] | IC50 (hNCX1; HEK293, text, read-out: IC50 hNCX1 (forward mode)) [µM] | inhibition at 10 µM (MAO A) [%] | solubility (Solubility; phosphate buffer, pH 7.4, aqueous buffer, read-out: Solubility class) [µg/mL] | Compound | IC50 (NCX [1]; read-out: IC50 NCX forward) [µM] | IC50 (NCX [1]; read-out: IC50 NCX reverse) [µM] | IC50 (NCX [2]; read-out: IC50 NCX forward) [µM] | IC50 (NCX [2]; read-out: IC50 NCX reverse) [µM] | Solubility class (Solubility) | IC50 (NCX [3]; read-out: IC50 NCX forward) [µM] | IC50 (NCX [3]; read-out: IC50 NCX reverse) [µM] | IC50 (L-Type Ca2+ Channel) [µM] | IC50 (hERG) [µM] | IC50 (NCX [4]; read-out: IC50 NCX forward) [µM] | IC50 (NCX [4]; read-out: IC50 NCX reverse) [µM] |
| --- | --- | --- | --- | --- | --- | --- | --- | --- | --- | --- | --- | --- | --- | --- | --- | --- | --- |
| 3.59 | 3.79 | – | – | – | – | N=C(N)SCCc1ccc(OCc2ccc([N+](=O)[O-])cc2)cc1 [KB-R7943] | 0.243 | 0.309 | 0.12 | 0.061 | Moderate (moderate solubility between 10-100 µg/ml) | – | – | – | – | – | – |
| – | – | – | – | – | – | Nc1cccc(CNC(=O)c2ccc(Oc3ccc(OCc4cccc(F)c4)cc3)nc2)c1 [YM-244769] | – | – | – | – | – | 0.068 | 0.096 | > 3 | – | – | – |
| – | 16 | 80 | > 100 | 38 | 10 to 100 (≈ 24.8 to 248 µM) | CCOC(=O)C1CSC(Cc2ccc(OCc3ccc([N+](=O)[O-])cc3)cc2)N1 (stereo not drawn) [SN‐6, 2‐[4‐(4‐nitrobenzyloxy)benzyl]thiazolidine‐4‐carboxylic acid ethyl ester] | – | – | – | – | – | – | – | – | 102 | > 30 | 29 |

Source: PMC7707092, “Discovery and characterization of ORM‐11372, a novel inhibitor of the sodium‐calcium exchanger with positive inotropic activity” (British Journal of Pharmacology, 2020)
